Measured values from patent US9988371B2, “Benzimidazole analogues and related methods” (The Arizona Board of Regents, on Behalf of the University …, priority 2014, dated 2018).
pIC50: −log10 of the molar value.

Experiments:
hERG = target: T1, hERG (Homo sapiens, UniProt Q12809); experiment: patch clamp hERG assay; type: cell-based; conditions: patch clamp (GenScript)
T1 construct: purchased GenScript
Protocol: (§1) Pz-1 was minimally active in the patch clamp hERG assay, with an IC50 for the hERG assay of 10 μM (GenScript).

hERG (relative to RET) = target: T2, hERG (relative to RET) (Homo sapiens, UniProt Q12809); experiment: patch clamp hERG assay; type: cell-based; conditions: human; read-out: selectivity for RET over hERG
T2 construct: purchased GenScript
Protocol: as §1

[1] = test system: RET/C634Y transformed NIH3T3 fibroblasts; experiment: NIH3T3 RET/C634Y tumors in nude mice; type: in vivo, BALB/c nu/nu mice; conditions: 1.0, 3.0 or 10 mg/kg daily, oral gavage
Description: FIG. 8: Anti-tumorigenic activity of Pz-1 in nude mice implanted with RET/C634Y or HRAS(G12V) transformed NIH3T3 fibroblasts. […] Average tumor volume (±SD: standard deviations) is reported. NIH3T3 RET/C634Y (200,000 cells) or NIH3T3 HRAS/G12V (50,000 cells) were inoculated subcutaneously into dorsal portion (both sides) of 6-week-old female BALB/c nu/nu mice (n. 31 mice/cell line) (Jackson Laboratories, Bar Harbor, Me.). After 4 days, before tumors had appeared, animals were randomly assigned to receive Pz-1 (1.0, 3.0 or 10 mg/kg daily) (23 mice/cell line: 8 mice/group for 1.0 and 3.0 mg/kg daily doses and 7 mice for 10 dose mg/kg daily) or vehicle control (8 mice) by oral gavage. Tumor diameters were measured with calipers every 1-2 days. Tumor volumes (V) were calculated by the rotational ellipsoid formula and reported as average volumes±standard deviations. […]
TT cells (7.5×10^6/mouse) were inoculated subcutaneously into dorsal portions (both sides) of 39 SCID mice (Jackson Laboratories, Bar Harbor, Me.). […] Tumor diameters were measured with callipers every week. Tumor volumes (V) were calculated by the rotational ellipsoid formula: V=A×B^2/2 (A=axial diameter; B=rotational diameter) and reported as average volumes±standard deviations. […] Anti-tumorigenic activity of Pz-1 was also assessed in nude mice implanted with RET/C634Y or HRAS(G12V) transformed NIH3T3 fibroblasts. […]

CYP2D6 = CYP2D6 (Homo sapiens, UniProt P10635); experiment: CYP inhibition; type: in vitro ADME; conditions: read-out: CYP 2D6 IC50
RET/C634Y = target: T3, RET/C634Y (Homo sapiens, UniProt P07949, C634Y); experiment: In vivo target inhibition, RET phosphorylation and signaling in RET/C634Y-induced tumors; parameters: species or system nude mice; conditions: 48 hr, 1.0 or 3.0 mg/kg daily
T3 construct: expressed in transfected cells; host or cells: NIH3T3 fibroblasts, grown as tumours in BALB/c nu/nu mice
Protocol: FIG. 9: Photographs of blots showing effects of Pz-1 on cellular phosphorylation events in tumors induced in nude mice (from FIG. 8) by injection of NIH3T3 fibroblasts transformed by RET/C634Y or HRAS/G12V. […] Some of the vehicle-treated tumors, at the end of the tumor growth experiment described in FIG. 8, were treated for 48 hr with different doses of Pz-1 (TR) or left untreated (NT). At the end of the treatment, 50 μg of tumor protein lysates were subjected to immunoblotting with anti-phospho-Y1062 (αp1062) and anti-phospho-905 (αpY905) RET antibodies, anti-phospho-MAPK (αpMAPK, T302/Y304), anti-phospho-SHC (αpSHC, Y317), anti-phospho-p70S6K (αpp70S6K, T389), anti-phospho-S6RP (αpS6RP, S235/S236), and anti-phospho-VEGFR2 (αpVEGFR2 pY1175) antibodies. The blots were normalized using anti-RET (αRET), anti-SHC (αSHC), anti-MAPK (αMAPK), anti-p70S6K (αp70S6K), anti-S6RP (αS6RP) or anti-VEGFR2 (αVEGFR2) antibodies.
Some of the vehicle-treated tumors, at the end of the tumor growth experiment reported in FIG. 8, were treated for 48 hr with different doses of Pz-1 (1.0 or 3.0 mg/kg daily) or left untreated. […]

T2 sequence (Q12809 whole entry): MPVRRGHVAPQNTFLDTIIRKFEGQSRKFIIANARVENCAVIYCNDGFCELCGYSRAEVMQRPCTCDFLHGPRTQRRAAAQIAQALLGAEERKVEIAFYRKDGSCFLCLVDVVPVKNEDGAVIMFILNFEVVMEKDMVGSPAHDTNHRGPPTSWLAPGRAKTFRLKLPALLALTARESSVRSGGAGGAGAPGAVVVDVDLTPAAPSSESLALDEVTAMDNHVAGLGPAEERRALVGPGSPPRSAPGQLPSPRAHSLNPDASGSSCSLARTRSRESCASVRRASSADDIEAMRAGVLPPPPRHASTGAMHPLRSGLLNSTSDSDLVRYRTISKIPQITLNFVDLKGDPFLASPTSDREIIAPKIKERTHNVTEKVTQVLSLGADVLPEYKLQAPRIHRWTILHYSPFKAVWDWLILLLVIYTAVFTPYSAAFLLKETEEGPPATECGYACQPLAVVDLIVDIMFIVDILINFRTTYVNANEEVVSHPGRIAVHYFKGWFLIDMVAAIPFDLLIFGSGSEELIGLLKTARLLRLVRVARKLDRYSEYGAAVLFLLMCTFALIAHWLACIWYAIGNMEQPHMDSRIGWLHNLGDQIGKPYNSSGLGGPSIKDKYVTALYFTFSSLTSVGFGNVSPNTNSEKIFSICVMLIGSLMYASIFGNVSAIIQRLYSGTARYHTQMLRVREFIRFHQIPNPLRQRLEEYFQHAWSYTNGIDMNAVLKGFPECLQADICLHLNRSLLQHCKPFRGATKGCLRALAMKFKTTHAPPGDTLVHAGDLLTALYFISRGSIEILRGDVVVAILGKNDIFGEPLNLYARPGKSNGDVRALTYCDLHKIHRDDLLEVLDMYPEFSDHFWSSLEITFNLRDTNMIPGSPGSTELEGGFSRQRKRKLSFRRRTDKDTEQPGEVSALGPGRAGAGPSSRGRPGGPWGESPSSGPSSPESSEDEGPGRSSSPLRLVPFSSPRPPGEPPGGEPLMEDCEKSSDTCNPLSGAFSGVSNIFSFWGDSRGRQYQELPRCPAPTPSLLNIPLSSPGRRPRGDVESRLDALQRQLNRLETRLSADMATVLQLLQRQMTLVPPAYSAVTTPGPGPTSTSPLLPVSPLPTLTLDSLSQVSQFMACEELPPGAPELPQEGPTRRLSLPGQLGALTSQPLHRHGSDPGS
T1 sequence (Q12809 whole entry): as above
T3 sequence (P07949 29-1072 isoform P07949-2 C634Y limits assumed): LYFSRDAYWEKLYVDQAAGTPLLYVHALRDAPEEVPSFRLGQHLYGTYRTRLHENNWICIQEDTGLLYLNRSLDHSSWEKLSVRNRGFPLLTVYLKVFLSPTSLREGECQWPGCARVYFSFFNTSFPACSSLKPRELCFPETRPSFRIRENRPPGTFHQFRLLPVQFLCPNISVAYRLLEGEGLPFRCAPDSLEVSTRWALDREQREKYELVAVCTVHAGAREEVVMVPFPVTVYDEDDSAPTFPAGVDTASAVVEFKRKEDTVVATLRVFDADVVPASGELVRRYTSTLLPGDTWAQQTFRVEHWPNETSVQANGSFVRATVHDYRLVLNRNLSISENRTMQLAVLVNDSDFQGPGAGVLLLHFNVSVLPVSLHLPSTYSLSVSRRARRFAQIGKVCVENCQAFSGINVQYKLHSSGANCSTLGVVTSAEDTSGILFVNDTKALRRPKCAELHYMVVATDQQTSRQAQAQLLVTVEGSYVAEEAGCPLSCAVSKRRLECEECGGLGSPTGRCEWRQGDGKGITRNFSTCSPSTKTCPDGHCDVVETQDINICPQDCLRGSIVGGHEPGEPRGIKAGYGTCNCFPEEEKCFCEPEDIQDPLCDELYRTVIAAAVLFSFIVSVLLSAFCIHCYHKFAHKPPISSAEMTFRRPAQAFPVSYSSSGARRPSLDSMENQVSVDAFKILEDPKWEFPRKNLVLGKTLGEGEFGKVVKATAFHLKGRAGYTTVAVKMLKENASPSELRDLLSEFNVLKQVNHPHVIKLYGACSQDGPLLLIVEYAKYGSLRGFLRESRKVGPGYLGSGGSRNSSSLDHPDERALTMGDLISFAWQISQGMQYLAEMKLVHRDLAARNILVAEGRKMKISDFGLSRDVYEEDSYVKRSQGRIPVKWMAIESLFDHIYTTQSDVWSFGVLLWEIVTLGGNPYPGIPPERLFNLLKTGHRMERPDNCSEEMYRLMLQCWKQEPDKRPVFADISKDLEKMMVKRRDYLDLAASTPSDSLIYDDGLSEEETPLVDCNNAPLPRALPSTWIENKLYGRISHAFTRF
CYP2D6, sequence (P10635 whole entry): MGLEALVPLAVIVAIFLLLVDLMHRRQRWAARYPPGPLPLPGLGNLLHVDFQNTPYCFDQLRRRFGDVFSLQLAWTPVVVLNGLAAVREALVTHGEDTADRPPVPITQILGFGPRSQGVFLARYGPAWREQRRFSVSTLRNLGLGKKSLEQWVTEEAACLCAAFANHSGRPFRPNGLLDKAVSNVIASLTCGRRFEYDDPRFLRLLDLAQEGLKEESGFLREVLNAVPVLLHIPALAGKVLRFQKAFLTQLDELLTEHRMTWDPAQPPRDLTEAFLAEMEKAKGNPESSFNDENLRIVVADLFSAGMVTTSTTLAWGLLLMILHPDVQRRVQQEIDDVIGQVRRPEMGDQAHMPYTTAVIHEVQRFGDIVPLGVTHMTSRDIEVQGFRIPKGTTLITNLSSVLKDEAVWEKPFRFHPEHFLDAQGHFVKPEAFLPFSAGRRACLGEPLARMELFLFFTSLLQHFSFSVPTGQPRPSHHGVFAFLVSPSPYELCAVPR

With `Cn1cc(-c2ccc3c(c2)ncn3-c2ccc(CC(=O)Nc3cc(C(C)(C)C)on3)cc2)cn1` [Pz-1, N-(5-(tert-butyl)isoxazol-3-yl)-2-(4-(5-(1-methyl-1H-pyrazol-4-yl)-1H-benzo[d]imidazol-1-yl)phenyl)acetamide] the pIC50 (hERG) was 5.00, the selectivity ratio (hERG (relative to RET)) was 10000 and the “formation of tumors induced by RET cells” value [1] was “totally prevented formation of tumors”. For the same compound, the pIC50 (CYP2D6) was 4.86 and the “RET phosphorylation and intracellular signaling (SHC, MAPK, p70S6K and S6RP) in tumors” value (RET/C634Y) was “inhibited”.
